Measurements reported in US20250135026A1, “Antibody Drug Conjugates” (BeiGene Switzerland GmbH, priority 2021, published 2025).
Like-named read-outs stand apart in the source and are kept apart here.

How the values were obtained:
A375 = experiment: Compounds cellular killing (Cell Titer-Glo, 6 days, 2D); assay type: cell-based, human; details: for cell-killing activity compared with Dxd: A375; for EC50 / Emax: Homo sapiens; for Emax: read-out: Emax
Protocol: (§1) The cell line was grown in a humidified 5% CO2 atmosphere at 37° C., and was regularly tested for the presence of mycoplasma with MycoAlert™ PLUS Mycoplasma Detection Kit (Lonza, LT07-710).
(§2) Incubation at 37° C., 5% CO2, overnight.
(§3) Adding the fresh growth-medium containing the varying concentrations of compounds, 50 ul/well.
(§4) Incubation at 37° C., 5% CO2, 6 days.
(§5) The cell viability detected by Cell Titer-Glo (Promega, G7573). Add 70 µL/well of CellTiter-Glo® Reagent in each well.
(§6) Allow the plates to incubate at room temperature for 10 minutes to stabilize luminescent signal.
(§7) Analyze with Microplate Reader.

Calu-6 = experiment: as above; assay type: cell-based; details: for EC50 / Emax: Homo sapiens; for Emax: read-out: Emax
Protocol: as §1, §2, §3, §4, §5, §6, §7

in vitro = details: PAMPA
HCC1569 = experiment: Payload cellular killing, 2D; assay type: cell-based; details: Homo sapiens, HCC1569, 2D (HER3 +++); for Emax: read-out: Emax
MDA-MB-453 = experiment: Payload cellular killing, 2D; assay type: cell-based, human; details: Homo sapiens, MDA-MB-453, 2D (HER3 +++); for Emax: read-out: Emax
Protocol: as §1

PAMPA = details: free payload
cathepsin B = cathepsin B (Homo sapiens, UniProt P07858); experiment: Cathepsin B mediated rhodamine release; assay type: biochemical; details: 150 nM, 0.3 unit activated cathepsin B, pH 5.5, 37° C., FIG. 21
Protocol: CTSB was activated by incubation at ambient temperature for 15 min with 30 mM dithiothreitol and 15 mM EDTA at PH5.5.
Reaction buffer preparation: 25 mM sodium acetate & 1 mM EDTA, PH5.5.
Adding 150 nM NAcCys-13 & NAcCys-14 & NAcCys-15 & NAcCys-16 & NAcCys-17 and 0.3 unit activated cathepsin B mixture according to the experiment template.
The reaction mixtures were incubated at 37° C. immediately in the reader, then start reading using the kinetic set-up described. (TECAN SPARK: excitation/emission: 485/520 nm) (120 cycles, every one min) Gain Manual: 77%
Data analysis by GraphPad Prism 9 is illustrated in FIG. 21.

[1] = A-375, Table 27, free payload, A375, 2D (Her3 ++)
[2] = A-375, […], Table 29, payload, A375, 6d, 2D (Her3++)
[3] = A-375, Table 29, payload, A375, 6d, 2D (Her3++)
[4] = Calu-6, Table 27, free payload, Calu-6, 2D (HER3 neg.)
[5] = Calu-6, […], Table 29, payload, Clau6, 6d, 2D (Her3 neg)
[6] = Calu-6, Table 29, payload, Clau6, 6d, 2D (Her3 neg)
[7] = A-375, Table 28, payload, A375, 2D (Her3 ++)
[8] = Calu-6, Table 28, payload, Calu-6, 2D (HER3 neg.)

| SMILES | cell-killing activity compared with Dxd (A375) | EC50 (A375; [1]) | EC50 (A375; [2]) | EC50 (A375; A-375, Table 21, A375) | Emax (A375; A-375, Table 21, A375) | Emax (A375; [3]) | cell-killing activity compared with Dxd (Calu-6; Calu-6) | EC50 (Calu-6; Calu-6, Table 21, Calu-6) | EC50 (Calu-6; [4]) | EC50 (Calu-6; [5]) | Emax (Calu-6; [6]) | Emax (Calu-6; Table 21, Calu-6) | PAMPA -Log Pe | recovery (in vitro) | EC50 (A375; [7]) | Emax (Calu-6; [4]) | EC50 (Calu-6; [8]) | Emax (Calu-6; [8]) | Emax (HCC1569; HCC1569, Table 28, payload) | Emax (MDA-MB-453; MDA-MB-453, Table 28, payload) | also measured |
| --- | --- | --- | --- | --- | --- | --- | --- | --- | --- | --- | --- | --- | --- | --- | --- | --- | --- | --- | --- | --- | --- |
| CC[C@@]1(O)C(=O)OCc2c1cc1n(c2=O)Cc2c-1nc1cc(F)c(C)c3c1c2[C@@H](NC(=O)C(C)(C)CO)CC3 [Compound 66, N-((1S,9S)-9-ethyl-5-fluoro-9-hydroxy-4-methyl-10,13-dioxo-2,3,9,10,13,15-hexahydro-1H,12H-benzo[de]pyrano[3′,4′:6,7]indolizino[1,2-b]quinolin-1-yl)-3-hydroxy-2,2-dimethylpropanamide] | stronger cell-killing activity than Dxd | 1.1 nM | 1.1 nM | 1.1 nM | 99.9% | 99.9% | stronger cell-killing activity than Dxd | 0.3 nM | 0.3 nM | 0.3 nM | 97.3% | 97.3% | 5.89 | 79.7% | – | – | – | – | – | – | – |
| CC[C@@]1(O)C(=O)OCc2c1cc1n(c2=O)Cc2c-1nc1cc(F)c(C)c3c1c2[C@@H](NC(=O)CCO)CC3 [Compound 72] | less potent than Dxd | 4.4 nM | 4.4 nM | 4.4 nM | 99.9% | 99.9% | less potent than Dxd | 2 nM | 2 nM | 2 nM | 98.3% | 98.3% | 6.02 | 48.1% | – | – | – | – | – | – | – |
| CC[C@@]1(O)C(=O)OCc2c1cc1n(c2=O)Cc2c-1nc1cc(F)c(C)c3c1c2[C@@H](N)CC3 [Exatecan, reference compound] | – | 0.7 nM | – | – | – | – | – | – | 0.3 nM | – | – | – | – | 56% | 0.9 nM | 96.2% | 0.2 nM | 96.4% | 94.5% | 99.4% | Emax (A375; [1]): 99.9%; EC50 (HCC1569; Table 28, payload): 0.5 nM; EC50 (MDA-MB-453; Table 28, payload): 0.5 nM; PAMPA -Log Pe (PAMPA): 5.75 |
| CC[C@@]1(O)C(=O)OCc2c1cc1n(c2=O)Cc2c-1nc1cc(F)c(C)c3c1c2[C@@H](NC(=O)CO)CC3 [DXd, reference compound] | – | 2.8 nM | 2.7 nM | 2.8 nM | 100% | 100% | – | – | – | – | – | – | – | 95.2% | 3.2 nM | 98% | 1.2 nM | 98.6% | 93.4% | 98.7% | Emax (Calu-6; Calu-6, Table 21, Calu-6): 98%; Emax (Calu-6; [5]): 98.8%; EC50 (HCC1569; HCC1569, Table 28, payload): 2.9 nM; EC50 (MDA-MB-453; MDA-MB-453, Table 28, payload): 1.9 nM; PAMPA -Log Pe (PAMPA): 5.89 |
| CCOC(=O)Nc1ccc2c(c1)Oc1cc(NC(=O)OCc3ccc(NC(=O)[C@H](CCCNC(N)=O)NC(=O)[C@@H](NC(=O)CCOCCOCCOCCN4C(=O)CC(SC[C@H](N)C(=O)O)C4=O)C(C)C)cc3)ccc1C21OC(=O)c2ccccc21 (some centres unmarked) [NAcCys-13, reference compound] | – | – | – | – | – | – | – | – | – | – | – | – | – | – | – | – | – | – | – | – | cathepsin B mediated rhodamine release rate, rank (cathepsin B): NAcCys-15˜NAcCys-13 (benchmark)>NAcCys-14>NAcCys-17 |
